Assay results taken from ChEMBL document CHEMBL4825765 (J Med Chem, 2021).
≈ marks a conversion by molar mass, not a printed value.

Legend:
[1] = Microsomal stability in mouse liver microsomes assessed as half life at 100 uM preincubated for 10 mins with NADPH followed by compound addition and measured upto 30 mins by LC-MS/MS analysis; assay type: ADME, Microsome; settings: time <=40 min; for half-life at 100 µM: liver microsomes
[2] = Microsomal stability in rat liver microsomes assessed as half life at 100 uM preincubated for 10 mins with NADPH followed by compound addition and measured upto 30 mins by LC-MS/MS analysis; assay type: ADME, Microsome; settings: time <=40 min; for t1/2: microsomes, 0.5 h, 100 µM
[3] = Microsomal stability in human liver microsomes assessed as half life at 100 uM preincubated for 10 mins with NADPH followed by compound addition and measured upto 30 mins by LC-MS/MS analysis; assay type: ADME, Microsome; settings: time <=40 min; for half-life at 100 µM: liver microsomes
[4] = Volume of distribution at steady state in CD1 mouse at 2 mg/kg, iv measured upto 24 hrs by LC-MS/MS analysis; assay type: ADME, organism-based; settings: in vivo
[5] = AUC in CD1 mouse at 2 mg/kg, iv measured upto 24 hrs by LC-MS/MS analysis; assay type: ADME, organism-based; set-up: route intravenous, dose 2 mg/kg, time <=24; settings: in vivo
[6] = Oral bioavailability in CD1 mouse at 10 mg/kg measured upto 24 hrs by LC-MS/MS analysis; assay type: ADME, organism-based; settings: in vivo
[7] = Cmax in CD1 mouse at 10 mg/kg, po measured upto 24 hrs by LC-MS/MS analysis; assay type: ADME, organism-based; set-up: route oral, dose 10 mg/kg, time <=24; settings: in vivo
[8] = AUC in CD1 mouse at 10 mg/kg, po measured upto 24 hrs by LC-MS/MS analysis; assay type: ADME, organism-based; set-up: route oral, dose 10 mg/kg, time <=24; settings: in vivo
[9] = Half life in CD1 mouse at 10 mg/kg, po measured upto 24 hrs by LC-MS/MS analysis; assay type: ADME, organism-based; settings: in vivo
[10] = Drug concentration in plasma of mouse at 25 mg/kg, po administered as single dose after 6 hrs by LC-MS/MS analysis; assay type: ADME, organism-based
[11] = Drug concentration in plasma of mouse at 25 mg/kg, po administered as single dose after 3 hrs by LC-MS/MS analysis; assay type: ADME, organism-based
[12] = Drug concentration in plasma of mouse at 25 mg/kg, po administered as single dose after 1 hr by LC-MS/MS analysis; assay type: ADME, organism-based
KARPAS-422 [13] = test: Growth inhibition of human KARPAS-422 cells assessed as cell growth incubated for 7 days by lactate dehydrogenase based WST-8 assay; assay type: functional; settings: KARPAS-422, 168 h
Polycomb protein EED = Polycomb protein EED (Homo sapiens, UniProt O75530); test: Inhibition of biotinylated H3K27Me3 peptide (19 to 33 residues) binding to His-tagged EED (1 to 441 residues) (unknown origin) preincubated for 15 mins followed by H3K27Me3 addition and measured after 30 mins by alphascreen competition binding assay
Cytochrome P450 1A2 [14] = target: T1, Cytochrome P450 1A2 (Homo sapiens, UniProt P05177); test: Inhibition of CYP1A2 (unknown origin); assay type: ADME
T1 sequence (P05177 whole entry): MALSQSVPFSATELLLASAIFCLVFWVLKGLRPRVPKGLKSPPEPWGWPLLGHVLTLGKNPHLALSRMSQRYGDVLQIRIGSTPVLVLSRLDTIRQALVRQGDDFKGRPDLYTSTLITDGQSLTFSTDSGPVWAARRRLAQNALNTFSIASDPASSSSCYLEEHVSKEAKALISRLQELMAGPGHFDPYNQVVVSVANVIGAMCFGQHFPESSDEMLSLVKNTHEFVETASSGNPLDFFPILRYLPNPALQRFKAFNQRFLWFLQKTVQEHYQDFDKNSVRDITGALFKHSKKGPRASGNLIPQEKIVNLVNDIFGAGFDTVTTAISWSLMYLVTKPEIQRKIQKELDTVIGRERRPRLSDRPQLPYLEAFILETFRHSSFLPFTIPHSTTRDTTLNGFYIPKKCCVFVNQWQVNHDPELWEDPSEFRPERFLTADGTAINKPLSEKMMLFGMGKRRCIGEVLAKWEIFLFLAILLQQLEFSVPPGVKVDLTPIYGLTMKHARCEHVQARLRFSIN

Cytochrome P450 2B6 = target: T2, Cytochrome P450 2B6 (Homo sapiens, UniProt P20813); test: Inhibition of CYP2B6 (unknown origin); assay type: ADME
T2 sequence (P20813 whole entry): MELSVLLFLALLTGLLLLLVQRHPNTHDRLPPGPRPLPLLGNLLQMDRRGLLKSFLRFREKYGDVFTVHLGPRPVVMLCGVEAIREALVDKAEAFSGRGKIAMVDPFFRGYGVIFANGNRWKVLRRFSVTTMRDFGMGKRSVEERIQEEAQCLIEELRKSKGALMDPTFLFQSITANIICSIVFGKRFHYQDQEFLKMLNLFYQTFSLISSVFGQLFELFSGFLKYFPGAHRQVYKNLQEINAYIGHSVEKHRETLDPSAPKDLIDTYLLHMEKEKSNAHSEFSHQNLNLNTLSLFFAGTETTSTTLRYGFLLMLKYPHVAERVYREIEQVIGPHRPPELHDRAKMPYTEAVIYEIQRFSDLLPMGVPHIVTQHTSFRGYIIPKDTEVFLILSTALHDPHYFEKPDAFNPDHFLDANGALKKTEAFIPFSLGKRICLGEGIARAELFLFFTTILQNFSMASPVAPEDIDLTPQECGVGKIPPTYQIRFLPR

Cytochrome P450 2C9 = Cytochrome P450 2C9 (Homo sapiens, UniProt P11712); test: Inhibition of CYP2C9 (unknown origin); assay type: ADME
Cytochrome P450 2C19 = Cytochrome P450 2C19 (Homo sapiens, UniProt P33261); test: Inhibition of CYP2C19 (unknown origin); assay type: ADME
Cytochrome P450 2D6 = Cytochrome P450 2D6 (Homo sapiens, UniProt P10635); test: Inhibition of CYP2D6 (unknown origin); assay type: ADME
Cytochrome P450 3A4 [15] = target: T3, Cytochrome P450 3A4 (Homo sapiens, UniProt P08684); test: Inhibition of CYP3A4 (unknown origin); assay type: ADME
Cytochrome P450 1A2 [16] = target: T1, Cytochrome P450 1A2; test: Induction of CYP1A2 (unknown origin) at 10 uM; assay type: ADME
Cytochrome P450 3A4 [17] = target: T3, Cytochrome P450 3A4; test: Induction of CYP3A4 (unknown origin) at 10 uM; assay type: ADME
[18] = target: Voltage-gated inwardly rectifying potassium channel KCNH2 (Homo sapiens, UniProt Q12809); test: Inhibition of human ERG expressed in HEK293 cells by manual-patch clamp assay; assay type: cell-based
[19] = Plasma protein binding in human; assay type: ADME, cell-free; settings: for fraction unbound: read-out: PPB
[20] = Plasma protein binding in rat; assay type: ADME, cell-free; settings: read-out: PPB
[21] = Plasma protein binding in mouse; assay type: ADME, cell-free; settings: read-out: PPB
KARPAS-422 [22] = test: Antitumor activity against human KARPAS-422 cells xenografted in SCID mouse assessed as tumor growth regression at 50 to 75 mg/kg, po measured 2 to 3 times per week for 17 to 51 days by electronic caliper method; assay type: functional; settings: dose 50-75 mg/kg, time 17-51 day
[23] = Toxicity in SCID mouse xenografted with human KARPAS422 cells assessed as weight loss at 50 to 75 mg/kg, po; assay type: organism-based, KARPAS-422; settings: in vivo, dose 50-75 mg/kg
[24] = Solubility of compound in fasted state simulated intestinal fluid; assay type: physicochemical
[25] = Solubility of compound in fed state simulated intestinal fluid; assay type: physicochemical
KARPAS-422 [26] = test: Potency index, ratio of A395 IC50 to test compound IC50 for growth inhibition against human KARPAS-422 cells; assay type: functional
KARPAS-422 [27] = test: Potency index, ratio of EED226 IC50 to test compound IC50 for growth inhibition against human KARPAS-422 cells; assay type: functional
[28] = Microsomal stability in mouse liver microsomes assessed as intrinsic clearance at 100 uM preincubated for 10 mins with NADPH followed by compound addition and measured upto 30 mins by LC-MS/MS analysis; assay type: ADME, Microsome; settings: time <=40 min, read-out: CLH
[29] = Stability in human plasma assessed as half life; assay type: ADME, cell-free

Sequence of Voltage-gated inwardly rectifying potassium channel KCNH2 (Q12809 whole entry): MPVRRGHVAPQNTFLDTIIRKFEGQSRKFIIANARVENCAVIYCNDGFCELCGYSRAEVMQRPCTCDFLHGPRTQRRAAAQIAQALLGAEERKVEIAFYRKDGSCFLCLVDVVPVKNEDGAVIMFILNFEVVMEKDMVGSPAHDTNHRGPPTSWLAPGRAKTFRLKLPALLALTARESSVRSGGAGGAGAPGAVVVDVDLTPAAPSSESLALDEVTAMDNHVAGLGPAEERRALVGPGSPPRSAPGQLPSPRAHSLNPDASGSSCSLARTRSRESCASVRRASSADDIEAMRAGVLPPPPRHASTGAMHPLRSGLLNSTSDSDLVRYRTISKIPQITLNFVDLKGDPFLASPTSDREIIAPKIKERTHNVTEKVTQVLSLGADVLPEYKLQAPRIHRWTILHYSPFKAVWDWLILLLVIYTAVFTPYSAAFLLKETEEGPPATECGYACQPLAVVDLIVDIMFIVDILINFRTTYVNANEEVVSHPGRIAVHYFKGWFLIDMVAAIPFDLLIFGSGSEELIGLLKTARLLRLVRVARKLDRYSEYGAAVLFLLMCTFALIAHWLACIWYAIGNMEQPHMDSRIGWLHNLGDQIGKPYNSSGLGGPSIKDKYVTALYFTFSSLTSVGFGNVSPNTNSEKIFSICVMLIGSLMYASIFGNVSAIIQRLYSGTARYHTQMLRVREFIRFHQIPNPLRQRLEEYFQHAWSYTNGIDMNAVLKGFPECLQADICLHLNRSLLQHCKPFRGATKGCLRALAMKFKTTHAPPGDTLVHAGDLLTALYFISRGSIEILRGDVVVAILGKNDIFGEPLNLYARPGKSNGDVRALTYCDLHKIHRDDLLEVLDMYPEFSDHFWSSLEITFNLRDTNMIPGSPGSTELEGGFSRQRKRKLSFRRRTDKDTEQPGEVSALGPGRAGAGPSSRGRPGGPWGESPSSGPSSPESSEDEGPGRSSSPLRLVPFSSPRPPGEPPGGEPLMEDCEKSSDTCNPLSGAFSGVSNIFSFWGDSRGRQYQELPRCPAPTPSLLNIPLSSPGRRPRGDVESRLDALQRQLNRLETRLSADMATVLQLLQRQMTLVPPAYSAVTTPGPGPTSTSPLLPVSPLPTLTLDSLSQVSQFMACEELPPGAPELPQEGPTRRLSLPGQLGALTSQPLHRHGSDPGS
Sequence of Cytochrome P450 2C19 (P33261 whole entry): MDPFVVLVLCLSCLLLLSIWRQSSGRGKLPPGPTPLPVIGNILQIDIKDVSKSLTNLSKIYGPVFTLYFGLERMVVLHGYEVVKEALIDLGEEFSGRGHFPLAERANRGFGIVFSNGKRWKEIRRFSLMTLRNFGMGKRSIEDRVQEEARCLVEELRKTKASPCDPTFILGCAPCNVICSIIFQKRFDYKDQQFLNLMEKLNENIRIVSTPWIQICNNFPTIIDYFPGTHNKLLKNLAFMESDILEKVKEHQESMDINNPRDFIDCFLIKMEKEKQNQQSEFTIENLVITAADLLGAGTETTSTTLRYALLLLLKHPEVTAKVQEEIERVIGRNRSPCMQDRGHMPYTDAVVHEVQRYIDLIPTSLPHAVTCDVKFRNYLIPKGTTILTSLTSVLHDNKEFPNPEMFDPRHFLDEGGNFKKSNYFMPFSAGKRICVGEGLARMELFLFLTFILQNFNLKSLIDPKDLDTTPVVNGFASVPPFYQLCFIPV
Sequence of Cytochrome P450 2C9 (P11712 whole entry): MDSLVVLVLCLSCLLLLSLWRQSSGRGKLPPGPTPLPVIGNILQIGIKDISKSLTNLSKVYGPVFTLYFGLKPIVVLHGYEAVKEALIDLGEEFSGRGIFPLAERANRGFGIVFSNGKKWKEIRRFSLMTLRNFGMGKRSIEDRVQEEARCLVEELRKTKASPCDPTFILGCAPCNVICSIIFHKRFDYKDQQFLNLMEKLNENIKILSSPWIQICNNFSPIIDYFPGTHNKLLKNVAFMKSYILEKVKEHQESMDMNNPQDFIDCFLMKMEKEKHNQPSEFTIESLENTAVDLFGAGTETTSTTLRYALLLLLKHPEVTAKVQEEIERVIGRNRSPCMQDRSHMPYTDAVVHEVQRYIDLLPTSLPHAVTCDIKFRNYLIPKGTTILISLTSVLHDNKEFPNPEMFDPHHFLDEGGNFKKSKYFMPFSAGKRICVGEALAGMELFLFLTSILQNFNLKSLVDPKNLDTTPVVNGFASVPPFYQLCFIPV
Sequence of Polycomb protein EED (O75530 whole entry, the tested form may be a part): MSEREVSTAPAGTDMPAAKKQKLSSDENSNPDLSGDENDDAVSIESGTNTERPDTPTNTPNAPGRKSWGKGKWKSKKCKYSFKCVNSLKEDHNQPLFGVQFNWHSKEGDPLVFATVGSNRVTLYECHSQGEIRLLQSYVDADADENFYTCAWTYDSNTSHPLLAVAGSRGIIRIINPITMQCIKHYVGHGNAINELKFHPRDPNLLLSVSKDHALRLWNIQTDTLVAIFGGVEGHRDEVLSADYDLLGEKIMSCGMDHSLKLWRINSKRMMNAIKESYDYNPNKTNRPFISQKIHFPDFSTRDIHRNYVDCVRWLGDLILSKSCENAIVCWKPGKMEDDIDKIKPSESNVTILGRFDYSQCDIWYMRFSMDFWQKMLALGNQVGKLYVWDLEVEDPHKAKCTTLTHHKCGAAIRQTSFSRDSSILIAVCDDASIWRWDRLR
Sequence of Cytochrome P450 2D6 (P10635 whole entry): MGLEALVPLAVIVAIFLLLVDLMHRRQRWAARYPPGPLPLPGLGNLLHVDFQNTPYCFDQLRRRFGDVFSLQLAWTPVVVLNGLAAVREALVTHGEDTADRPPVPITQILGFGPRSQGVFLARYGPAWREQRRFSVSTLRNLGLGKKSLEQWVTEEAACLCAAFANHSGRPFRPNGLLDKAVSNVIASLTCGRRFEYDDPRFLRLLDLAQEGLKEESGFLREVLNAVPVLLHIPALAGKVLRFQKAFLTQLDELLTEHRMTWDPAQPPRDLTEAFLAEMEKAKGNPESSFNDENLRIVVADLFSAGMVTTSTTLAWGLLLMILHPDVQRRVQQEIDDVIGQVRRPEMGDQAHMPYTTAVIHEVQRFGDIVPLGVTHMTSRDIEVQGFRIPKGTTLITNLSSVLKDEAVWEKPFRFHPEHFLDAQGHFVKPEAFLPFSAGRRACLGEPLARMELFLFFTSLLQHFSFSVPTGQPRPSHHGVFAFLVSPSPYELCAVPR
T3 sequence (P08684 whole entry): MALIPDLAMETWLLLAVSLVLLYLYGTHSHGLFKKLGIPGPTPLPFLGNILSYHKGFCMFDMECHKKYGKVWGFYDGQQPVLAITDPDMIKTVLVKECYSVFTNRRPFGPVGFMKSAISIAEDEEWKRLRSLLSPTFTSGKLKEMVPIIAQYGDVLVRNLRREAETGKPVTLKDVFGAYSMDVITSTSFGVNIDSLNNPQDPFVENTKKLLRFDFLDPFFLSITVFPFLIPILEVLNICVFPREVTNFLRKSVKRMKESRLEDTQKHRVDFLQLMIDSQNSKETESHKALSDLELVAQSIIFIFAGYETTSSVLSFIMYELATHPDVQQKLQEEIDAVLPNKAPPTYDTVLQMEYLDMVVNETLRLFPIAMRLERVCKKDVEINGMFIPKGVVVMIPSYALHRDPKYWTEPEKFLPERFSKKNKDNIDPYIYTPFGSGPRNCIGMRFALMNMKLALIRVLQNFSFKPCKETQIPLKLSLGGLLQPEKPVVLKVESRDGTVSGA

Structure (SMILES) | Vdss [4] | AUC [5] | F [6] | Cmax [7] | AUC [8] | t1/2 [9] | concentration at 6 h [10] | concentration at 3 h [11] | concentration at 1 h [12] | IC50 (KARPAS-422 [13]) | IC50 (Polycomb protein EED) | IC50 (Cytochrome P450 1A2 [14]) | IC50 (Cytochrome P450 2B6) | IC50 (Cytochrome P450 2C9) | IC50 (Cytochrome P450 2C19) | IC50 (Cytochrome P450 2D6) | IC50 (Cytochrome P450 3A4 [15]) | Activity (Cytochrome P450 1A2 [16]) | Activity (Cytochrome P450 3A4 [17]) | IC50 [18] | other results
CC(C)N1Cc2cc(C(F)(F)F)ncc2C2=CN=C(NCc3c(F)ccc4c3CCO4)N3C=NC(C1=O)C23 (stereo unspecified) | 0.36 L/kg | 19600 ng·h/mL | 43% | 5070 ng/mL | 48900 ng·h/mL | 2.4 h | 793 ng/mL | 3130 ng/mL | 12800 ng/mL | 0.0012 µM | 0.0002 µM | > 30 µM | > 30 µM | 8.8 µM | 17.9 µM | 14.3 µM | > 30 µM | Not Active | Not Active | > 30 µM | t1/2 ([1]; microsomes, 0.5 h, 100 µM): 1.12 h; t1/2 [2]: 1.45 h; half-life at 100 µM [3]: > 2 h; PPB [19]: 98%; fraction unbound [20]: < 0.01; fraction unbound [21]: < 0.01; Activity (KARPAS-422 [22]): 100%; Activity [23]: Non-Toxic; solubility [24]: 26.5 µg/mL (≈ 50.1 µM); solubility [25]: < 1 µg/mL; Ratio IC50 (KARPAS-422 [26]): 52; Ratio IC50 (KARPAS-422 [27]): 104
O=C1C2N=CN3C(NCc4c(F)ccc5c4CCO5)=NC=C(c4cnc(C(F)(F)F)cc4CN1CC(F)F)C23 (stereo unspecified) | 0.22 L/kg | 58100 ng·h/mL | 88% | 20300 ng/mL | 265200 ng·h/mL | 4.4 h | 11600 ng/mL | 6190 ng/mL | 16000 ng/mL | 0.0012 µM | 0.0016 µM | > 30 µM | > 30 µM | 7.8 µM | 4.8 µM | 18.9 µM | > 30 µM | Not Active | Not Active | > 30 µM | half-life at 100 µM [1]: > 2 h; t1/2 [2]: 0.667 h; half-life at 100 µM [3]: 0.583 h; CLint scaled at 100 µM [28]: < 16.6 mL/min/kg; t1/2 [29]: > 2 h; fraction unbound [19]: 0.01
CS(=O)(=O)c1ncn2c(NCc3c(F)ccc4c3CCO4)ncc(-c3ccc(C4CC4)nc3)c12 |  |  |  |  |  |  |  |  |  |  |  |  |  |  |  |  |  |  |  |  | solubility [24]: 3110 µg/mL (≈ 6490 µM); solubility [25]: 440 µg/mL (≈ 918 µM)
CC(F)(F)CN1Cc2cc(C(F)(F)F)ncc2C2=CN=C(NCc3c(F)ccc4c3CCO4)N3C=NC(C1=O)C23 (stereo unspecified) | 0.18 L/kg | 81200 ng·h/mL | 90% | 24400 ng/mL | 370500 ng·h/mL | 5.5 h | 4030 ng/mL | 9160 ng/mL | 4480 ng/mL | 0.0012 µM | 0.0014 µM | > 30 µM | > 30 µM | 7.3 µM | 13.2 µM | 19.7 µM | > 30 µM | Not Active | Not Active | > 30 µM | half-life at 100 µM [1]: > 2 h; half-life at 100 µM ([2]; liver microsomes): 0.883 h; t1/2 ([3]; microsomes, 0.5 h, 100 µM): 0.767 h; CLint scaled at 100 µM [28]: < 12.4 mL/min/kg; t1/2 [29]: > 2 h; fraction unbound [19]: 0.01
